pIC50: −log10 of the molar value.

The pIC50 is the IC50 on a negative log10 scale, so that one unit is a factor of ten. For orientation: melting point means the temperature, or range, at which the solid turns liquid.

The target in one data set is VEGFR II (KDR) (Homo sapiens, UniProt P35968). Nature of the data set: Inhibition of the KDR kinase activity (33P-ATP, poly-(Glu4Tyr) phosphocellulose filter assay). Conditions: 10 minutes at room temperature; phosphate incorporation into poly-(Glu4Tyr). The class given is biochemical. On the procedure:
• Stock solution A: 3 mmol of ATP in water, pH 7.0 (−70° C.) • Stock solution B: g-33P-ATP 1 mCi/100 μl • Stock solution C: poly-(Glu4Tyr) 10 mg/ml in water Solution for Dilutions • Substrate solvent: 10 mmol of DTT, 10 mmol of manganese chloride, 100 mmol of magnesium chloride • Enzyme solution: 120 mmol of tris/HCl, pH 7.5, 10 μM of sodium vanadium oxide Sample Application 1
In a microtiter plate (without protein binding) that tapers to a point, 10 μl of substrate mix (10 μl of volume of ATP stock solution A+25 μCi of g-33P-ATP (about 2.5 μl of stock solution B)+30 μl of poly-(Glu4Tyr) stock solution C+1.21 ml of substrate solvent), 10 μl of inhibitor solution (substances corresponding to the dilutions, 3% DMSO in substrate solvent as a control) and 10 μl of enzyme solution (11.25 μg of enzyme stock solution (KDR or FLT-1 kinase) are added at 4° C. in 1.25 ml of enzyme solution (dilute). It is thoroughly mixed and incubated for 10 minutes at room temperature. Then, 10 μl of stop solution (250 mmol of EDTA, pH 7.0) is added, mixed, and 10 μl of the solution is transferred to a P 81 phosphocellulose filter. Then, it is washed several times in 0.1 M phosphoric acid. The filter paper is dried, coated with Meltilex and measured in a microbeta counter.
The IC50 values are determined from the inhibitor concentration, which is necessary to inhibit the phosphate incorporation to 50% of the uninhibited incorporation after removal of the blank reading (EDTA-stopped reaction).

For data set [1], the target named is T1, human cytochrome P 450 isoenzyme (3A4) (Homo sapiens, UniProt P08684).
T1 construct: host or cells: baculovirus/insect cells
Nature of the data set: Cytochrome P450 inhibition (Crespi et al.). The class given is in vitro ADME. Conditions: baculovirus/insect cell-expressed human isoenzyme 3A4. Here is the method:
The cytochrome P450 inhibition was performed according to the publication of Crespi et al. (Anal. Biochem., 248, 188-190 (1997)) with use of baculovirus/insect cell-expressed, human cytochrome P 450 isoenzyme (3A4).

Chain of VEGFR II (KDR) (P35968 20-1356): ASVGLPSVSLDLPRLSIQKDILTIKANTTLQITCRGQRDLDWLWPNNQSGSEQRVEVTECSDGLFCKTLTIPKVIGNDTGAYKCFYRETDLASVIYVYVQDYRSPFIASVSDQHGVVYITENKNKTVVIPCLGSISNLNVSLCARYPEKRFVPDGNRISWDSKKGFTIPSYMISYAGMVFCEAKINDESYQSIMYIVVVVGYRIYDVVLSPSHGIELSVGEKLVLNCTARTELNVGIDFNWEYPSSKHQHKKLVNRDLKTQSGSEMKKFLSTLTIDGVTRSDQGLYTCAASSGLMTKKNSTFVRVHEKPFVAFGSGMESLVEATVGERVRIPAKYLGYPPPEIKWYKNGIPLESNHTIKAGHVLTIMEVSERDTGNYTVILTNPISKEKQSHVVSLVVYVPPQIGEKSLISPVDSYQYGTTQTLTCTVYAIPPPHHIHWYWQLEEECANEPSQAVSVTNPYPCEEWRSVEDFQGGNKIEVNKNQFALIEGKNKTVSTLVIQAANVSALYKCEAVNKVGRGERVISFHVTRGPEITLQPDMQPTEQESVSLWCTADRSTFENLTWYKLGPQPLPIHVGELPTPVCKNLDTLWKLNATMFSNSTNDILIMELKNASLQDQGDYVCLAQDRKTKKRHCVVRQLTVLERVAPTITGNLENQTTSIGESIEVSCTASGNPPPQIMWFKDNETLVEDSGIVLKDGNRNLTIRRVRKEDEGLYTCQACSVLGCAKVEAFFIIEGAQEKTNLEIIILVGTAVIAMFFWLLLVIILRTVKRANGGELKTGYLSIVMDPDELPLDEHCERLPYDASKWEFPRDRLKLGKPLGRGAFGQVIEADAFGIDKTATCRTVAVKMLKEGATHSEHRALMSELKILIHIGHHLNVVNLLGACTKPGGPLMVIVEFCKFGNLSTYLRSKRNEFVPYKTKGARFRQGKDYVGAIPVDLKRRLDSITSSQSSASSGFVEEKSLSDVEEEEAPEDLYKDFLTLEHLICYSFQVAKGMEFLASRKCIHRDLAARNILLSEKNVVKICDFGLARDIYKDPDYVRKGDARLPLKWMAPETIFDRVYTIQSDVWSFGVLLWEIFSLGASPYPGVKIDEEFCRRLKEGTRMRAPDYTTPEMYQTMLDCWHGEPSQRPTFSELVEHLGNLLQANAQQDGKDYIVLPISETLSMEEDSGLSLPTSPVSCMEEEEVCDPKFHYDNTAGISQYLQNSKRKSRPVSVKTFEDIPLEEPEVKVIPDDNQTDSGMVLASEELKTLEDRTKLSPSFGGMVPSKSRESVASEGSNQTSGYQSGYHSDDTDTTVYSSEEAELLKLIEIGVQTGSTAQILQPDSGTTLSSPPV
T1 sequence (P08684 whole entry): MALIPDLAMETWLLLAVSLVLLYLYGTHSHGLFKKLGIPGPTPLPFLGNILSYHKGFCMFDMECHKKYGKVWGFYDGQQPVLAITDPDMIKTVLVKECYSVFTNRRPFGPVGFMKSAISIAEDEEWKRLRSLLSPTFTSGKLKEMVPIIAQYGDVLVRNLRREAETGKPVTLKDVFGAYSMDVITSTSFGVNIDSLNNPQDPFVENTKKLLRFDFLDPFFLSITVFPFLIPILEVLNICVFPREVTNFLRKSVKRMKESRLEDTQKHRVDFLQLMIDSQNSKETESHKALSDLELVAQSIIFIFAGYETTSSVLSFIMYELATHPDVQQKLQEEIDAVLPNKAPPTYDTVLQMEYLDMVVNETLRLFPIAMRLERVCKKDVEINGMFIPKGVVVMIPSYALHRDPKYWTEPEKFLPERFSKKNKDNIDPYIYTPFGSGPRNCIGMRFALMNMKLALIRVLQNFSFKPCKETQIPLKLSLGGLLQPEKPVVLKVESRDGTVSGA

Consider `CCOC(=O)Nc1cc(CNc2ccccc2C(=O)Nc2ccc3cn[nH]c3c2)ccn1` [Example 6.22], for which the pIC50 against VEGFR II (KDR) was 7.62; in data set [1], 5.00.

The molecule `O=C(Nc1cccc(C(F)(F)F)c1)c1ccccc1NCc1ccnc(N2C(=O)COCC2=O)c1` [Example 9.1, 2-{[2-(3,5-Dioxo-morpholin-4-yl)-pyridin-4-ylmethyl]-amino}-N-(3-trifluoromethyl-phenyl)-benzamide] showed a melting point of 201.9 °C.

Turning to `CN(C)C(=O)Nc1cc(CNc2ccccc2C(=O)Nc2cc3ccccc3cn2)ccn1` [Example 3.30, 2-{[2-(3,3-Dimethyl-ureido)-pyridin-4-ylmethyl]-amino}-N-(3-isoquinolinyl)-benzamide], the figures for the pIC50 (at VEGFR II (KDR); in data set [1]) were 8.00 and 5.26, respectively.

In turn, `CC(=O)N(C)c1cc(CNc2ccccc2C(=O)Nc2cc3ccccc3cn2)ccn1` [Example 6.31, 2-{[2-(Acetyl-methyl-amino)-pyridin-4-ylmethyl]-amino}-N-isoquinolin-3-yl-benzamide] yielded a melting point of 71 °C. Besides, the pIC50 on VEGFR II (KDR) was 7.19. Further, in data set [1], the pIC50 was 4.96.

`Nc1cc(CNc2ccccc2C(=O)Nc2ccc3[nH]ncc3c2)ccn1` [Example 2.2, 2-[(2-Amino-pyridin-4-ylmethyl)-amino]-N-(1H-indazol-5-yl)-benzamide] had a melting point of 200 °C.

For `O=C(Nc1cc2ccccc2cn1)c1ccccc1NCc1ccnc(N2CCOCC2)c1` [Example 1.14], the values for the pIC50 (on VEGFR II (KDR); in data set [1]) were 7.28 and less than 4.52, respectively.

Molecule `Nc1cc(CNc2ccccc2C(=O)Nc2cc3ccccc3cn2)ccn1` [Example 2.1, 2-[(2-Amino-pyridin-4-ylmethyl)-amino]-N-isoquinolin-3-yl-benzamide] yielded a melting point of 202 °C.

For the molecule `CNC(=O)Nc1cc(CNc2ccccc2C(=O)Nc2cc3ccccc3cn2)ccn1` [Example 3.24], the negative logarithm of the IC50 (pIC50) against VEGFR II (KDR) is 7.92; in data set [1], 4.85.

The values above are taken from patent US7517894B2, “VEGFR-2 and VEGFR-3 inhibitory anthranilamide pyridines” (Bayer Schering Pharma AG, priority 2003, dated 2009).
